Experimental findings from patent US6855802B1, “Mutated peptide compounds, derived from hsp70, useful in cancer immunotherapy” (Institut Gustave Roussy, priority 1998, dated 2005) are described below.

In experiment [1] the test system is autologous cell line transformed with EBV / 11C2 CTL. Kind of experiment: Peptide recognition assay: chromium release, lysis by 11C2 CTL of peptide-incubated autologous EBV-transformed cells. It is filed as cell-based, human. The following applies: for EC50: 11C2 CTL, E/T 31/1, 51Cr-labeled autologous EBV-transformed cells incubated 1 hour with peptide, 4 h release, read-out: maximum half-lysis (peptide concentration); for recognition by 11C2 CTL: peptides carrying the HLA-A*0201 binding motif, 18 peptides assayed. As for the experimental part:
2000 cells transformed with EBV and labeled with ^51Cr were incubated for 1 hour in the presence of the indicated hsp70-2 peptides (SEQ ID NOS. 2, 7, 1, and 8) at multiple concentrations. The 11C2 CTL was then added at an effector/target ratio (E/T) of 31/1. Chromium release was measured 4 hours later. The asterisks indicate the mutated amino acids.
The cytotoxicity assays were carried out using the standard 4-hour chromium release assay, as described above, Angevin et al, (1997). In summary, 2×10^3 51Cr-labeled target cells were incubated for 4 hours at 37° C., with the effector cells at various E/T ratios, in a final volume of 200 μl. With regard to lysis inhibition by the mAbs, the target cells were preincubated for two hours in the presence of saturating concentrations of mAb, before adding the effector cells. At the end of the incubation, 40 μl of supernatant were transferred to Lumaplate 96 solid scintillation plates (Packard Instruments, Meriden, Conn.), were dried overnight and counted in a beta-radioactivity counter (Packard Instruments).
In the screening assay, the peptides used were synthesized by “PepSet technology” (Chiron Technologies, Suresnes, France). For the functional assays, the peptides were synthesized on solid phase using F-moc (temporary NH2-terminal protection), and were purified by preparative HPLC. […] The lyophilized peptides were dissolved in […] in water, and conserved at −20° C. The peptides were used in a chromium release assay. 2000 autologous cells transformed with EBV, and labeled with ^51Cr, were incubated for 1 hour at 37° C. on 96-well plates, with diverse concentrations of peptides, before adding 11C2 CTLs.

Experiment [2] has as its system CD8+ cells from HLA-A2-positive donors. Kind of experiment: Elispot-IFNγ assay with CD8+ cells and peptide-loaded T2 cells. The experiment is classed as cell-based, human. The following applies: interferon gamma secretion, no in vitro culturing or cytokines.
The next experiment concerns the target T1, HLA-A2 (HLA-A*0201) (human).
T1 construct: whole, on cells; also called HLA-A2.1
Kind of experiment: T2 cell HLA-A2 up-regulation, flow cytometry with mAb MA2.1. As to the method:
T2 cells were incubated at 26° C. for 16 hours in serum-free medium, with or without peptide at a concentration of 20 μm. Next, the peptides (SEQ ID NOS. 2, 7, 1, and 8) were again added, and the cells were incubated at 37° C. […] The amino acid sequences of the peptides are represented. The mutated amino acid is represented by an asterisk.
For orientation: In flow cytometry, cells or beads pass a laser one at a time.

Take “SLFEGIDIYT [SEQ ID NO: 2, mutated hsp70-2 decapeptide 286-295 carrying the mutant isoleucine residue at position 8]”: in experiment [1], the EC50 was 0.05 nM and the “recognition by 11C2 CTL” value is given as “recognized”. The “induction of human CD8 lymphocytes from healthy HLA-A2+ individuals” value in experiment [2] is reported as “possible to induce”.

Consider “SLFEGIDIY [SEQ ID NO: 1, mutated hsp70-2 nonapeptide, amino acids 286 to 294, isoleucine at position 293]”, for which, in experiment [1], the EC50 came to 500 nM and the “recognition by 11C2 CTL” value is given as “recognized”. Besides, the “induction of human CD8 lymphocytes from healthy HLA-A2+ individuals” value in experiment [2] is “possible to induce”.

As to “SLFEGIDFYT [SEQ ID NO: 7, wild-type hsp70-2 decapeptide 286-295, reference compound]”, in experiment [1], the EC50 worked out at 50 nM and the “recognition by 11C2 CTL” value is on record as “recognizes”.

With “wild-type nonapeptide 286-294: wild-type hsp70-2 nonapeptide, amino acids 286-294 (SLFEGIDFY; listed as Homo sapiens) [reference compound]”, the “recognition by 11C2 CTL” value in experiment [1] is given as “not”.

With SLFEGIDFYT (Synthetic peptide) [wild-type hsp70-2 decapeptide 286-295 SLFEGIDFYT], in the experiment with HLA-A2 (HLA-A*0201), the binding result was “binds”.

B1: mutated hsp70-2 decapeptide 286-295 SLFEGIDIYT (peptide)
peptide: SLFEGIDIYT
notes: Synthetic peptide; carries the tumour mutation (isoleucine at hsp70 position 293, position 8 of the peptide)
As to B1, the binding result in the experiment with HLA-A2 (HLA-A*0201) is reported as “binds”.

On to SLFEGIDFY (2, 7, 1 and 8) [wild-type hsp70-2 nonapeptide 286-294], for which the binding result with HLA-A2 (HLA-A*0201) is “binds”.

B2: mutated hsp70-2 nonapeptide 286-294 SLFEGIDIY (peptide)
peptide: SLFEGIDIY
notes: Synthetic peptide; isoleucine at hsp70 position 293
B2: the binding result with HLA-A2 (HLA-A*0201) is “binds”.
